Test results reported in US20250163044A1, “COMPOUNDS” (PSYLO PTY LTD, priority 2021, published 2025).

What was measured:
Format in all cases: cell-based
[1] = target: T1, 5-HT2B receptor (Homo sapiens, UniProt P41595); assay: FLIPR Ca2+ flux functional assay, agonist activity at 5-HT2B; settings: CHO-K1 cells, Ca2+ flux; for EC50: read-out: 5-HT2B EC50
T1 construct: host or cells: CHO-K1
Procedure: (§1) Activity at 5-HT2A, 5-HT2B and 5-HT2C receptors was determined using a FLIPR Ca2+ flux assay at WuXi AppTec Co. Ltd. (Hong Kong) Discovery Biology Unit according to their standard protocols. Briefly, stably transfected cells expressing the receptor of interest (HEK293 for 5-HT2A and 5-HT2C; CHO-K1 for 5-HT2B) were grown and plated in a 384 well plate and incubated at 37° C. and 5% CO2 overnight. A 250 mM stock solution of probenecid in FLIPR calcium assay buffer (10 mL) was freshly prepared and combined with a fluorescent dye (Fluo-4 Direct) to give a final assay concentration of 2.5 mM. Reference compounds were 4-fold serially diluted and the screening compounds were 3-fold serially diluted in 100% DMSO for 10 points using Agilent Bravo, and 750 nL was added to a 384 well compound plate using Echo along with 30 μL assay buffer. The fluorescent dye was then added to the assay plate along with assay buffer to a final volume of 40 μL. The cell plate was incubated for 50 min at 37° C. and 5% CO2 and placed into the FLIPR Tetra along with the compound plate. 10 μL of references and compounds were then transferred from the compound plate into the cell plate and the fluorescent signal was read.

[2] = target: T2, 5-HT2A receptor (Homo sapiens, UniProt P28223); assay: FLIPR Ca2+ flux functional assay, agonist activity at 5-HT2A; settings: HEK293 cells, Ca2+ flux; for EC50: read-out: 5-HT2A EC50
T2 construct: host or cells: HEK293
T2 sequence (P28223 whole entry): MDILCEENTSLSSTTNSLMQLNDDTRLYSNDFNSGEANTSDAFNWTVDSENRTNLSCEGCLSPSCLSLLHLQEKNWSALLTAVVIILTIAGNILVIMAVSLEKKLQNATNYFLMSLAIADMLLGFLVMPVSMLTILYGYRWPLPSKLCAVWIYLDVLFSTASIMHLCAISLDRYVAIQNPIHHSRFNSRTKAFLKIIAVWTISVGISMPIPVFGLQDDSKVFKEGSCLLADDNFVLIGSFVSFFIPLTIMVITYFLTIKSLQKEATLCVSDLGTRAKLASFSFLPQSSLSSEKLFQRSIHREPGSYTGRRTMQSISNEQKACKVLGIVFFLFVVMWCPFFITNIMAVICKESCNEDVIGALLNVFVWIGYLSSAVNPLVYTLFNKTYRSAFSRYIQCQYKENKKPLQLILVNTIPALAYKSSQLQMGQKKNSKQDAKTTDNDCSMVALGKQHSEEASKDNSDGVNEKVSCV
Procedure: as §1

[3] = target: T3, 5-HT2C receptor (Homo sapiens, UniProt P28335); assay: FLIPR Ca2+ flux functional assay, agonist activity at 5-HT2C; settings: HEK293 cells, Ca2+ flux; for EC50: read-out: 5-HT2C EC50
T3 construct: host or cells: HEK293
T3 sequence (P28335 33-458): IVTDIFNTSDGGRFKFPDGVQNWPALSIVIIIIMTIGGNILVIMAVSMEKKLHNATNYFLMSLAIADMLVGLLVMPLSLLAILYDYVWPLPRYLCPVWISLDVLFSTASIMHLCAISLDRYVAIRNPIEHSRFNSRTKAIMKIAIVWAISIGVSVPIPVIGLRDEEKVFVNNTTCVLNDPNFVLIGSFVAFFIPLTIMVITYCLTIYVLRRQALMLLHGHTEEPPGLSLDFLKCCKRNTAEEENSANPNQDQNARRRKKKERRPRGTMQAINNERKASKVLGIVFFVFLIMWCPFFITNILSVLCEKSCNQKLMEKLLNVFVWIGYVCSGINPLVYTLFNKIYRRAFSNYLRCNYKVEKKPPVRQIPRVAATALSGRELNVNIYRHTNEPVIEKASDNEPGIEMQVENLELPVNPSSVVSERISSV
Procedure: as §1

T1 sequence (P41595 whole entry): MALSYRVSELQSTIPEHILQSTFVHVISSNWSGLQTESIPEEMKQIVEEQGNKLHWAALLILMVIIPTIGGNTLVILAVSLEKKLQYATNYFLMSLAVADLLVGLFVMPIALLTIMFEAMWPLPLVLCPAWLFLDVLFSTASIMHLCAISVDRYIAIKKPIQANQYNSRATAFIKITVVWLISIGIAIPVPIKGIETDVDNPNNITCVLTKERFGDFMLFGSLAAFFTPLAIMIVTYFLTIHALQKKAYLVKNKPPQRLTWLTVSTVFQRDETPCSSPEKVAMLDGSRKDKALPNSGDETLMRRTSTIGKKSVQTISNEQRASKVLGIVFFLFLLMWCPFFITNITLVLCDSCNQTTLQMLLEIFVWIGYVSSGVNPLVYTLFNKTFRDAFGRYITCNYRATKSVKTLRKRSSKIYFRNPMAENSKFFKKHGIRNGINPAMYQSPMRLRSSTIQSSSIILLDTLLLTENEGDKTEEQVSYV

| SMILES | Emax [1] | EC50 [1] | Emax [2] | EC50 [2] | Emax [3] | EC50 [3] |
| --- | --- | --- | --- | --- | --- | --- |
| COc1ccc2[nH]cc(CCN(C(C)C)C(C)C)c2n1 [Example P-12, N-isopropyl-N-(2-(5-methoxy-1H-pyrrolo[3,2-b]pyridin-3-yl)ethyl)propan-2-amine] | 102% | 22.2 nM | 85.7% | 6.96 nM | 110% | 200 nM |
| CCCN(CCC)CCc1c[nH]c2ccnc(OC)c12 [Example P-35, N,N-dipropyl-2-(4-methoxy-1H-pyrrolo[3,2-c]pyridin-3-yl)ethan-1-amine] | 74.7% | 78.5 nM | 82.2% | 79 nM | 55.6% | 7180 nM |
| CCN(C)CCc1c[nH]c2ccnc(C)c12 [Example P-40] |  |  | 0.75% | > 10000 nM |  |  |
| CCN(CC)CCc1c[nH]c2ccnc(OC)c12 [Example P-34, N,N-diethyl-2-(4-methoxy-1H-pyrrolo[3,2-c]pyridin-3-yl)ethan-1-amine] | 14.7% | > 10000 nM | 82.6% | 150 nM | 91.7% | 682 nM |
| CCN(CC)CCc1n[nH]c2cccc(O)c12 [Example P-43, 3-(2-(diethylamino)ethyl)-1H-indazol-4-ol] |  | > 10000 nM |  | 2180 nM |  | > 10000 nM |
| CCN(C)CCc1c[nH]c2ncc(OC)cc12 [Example P-20, N-ethyl-2-(5-methoxy-1H-pyrrolo[2,3-b]pyridin-3-yl)-N-methylethan-1-amine] | 1.38% | > 10000 nM | 76.7% | 93.3 nM | -0.08% | > 10000 nM |
| Cc1ccnc2[nH]cc(CCN(C)C)c12 [Example P-30, N,N-dimethyl-2-(4-methyl-1H-pyrrolo[2,3-b]pyridin-3-yl)ethan-1-amine] | 0.03% | > 10000 nM | 56.6% | 387 nM | 1.04% | > 10000 nM |
| COc1nccc2[nH]cc(CCN(C)C(C)C)c12 [Example P-38, N-(2-(4-methoxy-1H-pyrrolo[3,2-c]pyridin-3-yl)ethyl)-N-methylpropan-2-amine] | 19.6% | 610 nM | 83.1% | 77.7 nM | 70.2% | 1920 nM |
| CN(C)CCc1n[nH]c2cccc(O)c12 [Example P-6] |  | > 10000 nM |  |  |  | > 10000 nM |
| CCN(C)CCc1c[nH]c2ncc(C)cc12 [Example P-23, N-ethyl-N-methyl-2-(5-methyl-1H-pyrrolo[2,3-b]pyridin-3-yl)ethan-1-amine] | 0.88% | > 10000 nM | 55% | 1240 nM | -0.04% | > 10000 nM |
| CN(C)CCc1n[nH]c2ccccc12 [Example P-7] |  | > 10000 nM |  | > 10000 nM |  | 2340 nM |
| CCN(CC)CCc1c[nH]c2ncc(OC)cc12 [Example P-17, 2-(5-methoxy-1H-pyrrolo[2,3-b]pyridin-3-yl)-N,N-diethylethan-1-amine] | 0.37% | > 10000 nM | 84.7% | 279 nM | -0.53% | > 10000 nM |
| CN(C)CCc1c[nH]c2ncc(F)cc12 [Example P-24, N,N-dimethyl-2-(5-fluoro-1H-pyrrolo[2,3-b]pyridin-3-yl)ethan-1-amine] | 6.16% | > 10000 nM | 56.5% | 80.8 nM | 24.7% | > 10000 nM |
| CCCN(CCC)CCc1n[nH]c2cccc(O)c12 [Example P-45, 3-(2-(dipropylamino)ethyl)-1H-indazol-4-ol] |  | > 10000 nM |  | 160 nM |  | > 10000 nM |
| CCN(C)CCc1c[nH]c2nccc(F)c12 [Example P-33, N-ethyl-N-methyl-2-(4-fluoro-1H-pyrrolo[2,3-b]pyridin-3-yl)ethan-1-amine] | 0.01% | > 10000 nM | 54.7% | 641 nM | 0.33% | > 10000 nM |
| CCCN(CCC)CCc1c[nH]c2ncc(OC)cc12 [Example P-18, 2-(5-methoxy-1H-pyrrolo[2,3-b]pyridin-3-yl)-N,N-dipropylethan-1-amine] | 9.35% | > 10000 nM | 89.4% | 85.5 nM | -0.33% | > 10000 nM |
| COc1ccnc2[nH]cc(CCN(C(C)C)C(C)C)c12 [Example P-27, N-isopropyl-N-(2-(4-methoxy-1H-pyrrolo[2,3-b]pyridin-3-yl)ethyl)propan-2-amine] | 35.6% | > 10000 nM | 80.2% | 857 nM | 0.54% | > 10000 nM |
| CCN(C)CCc1c[nH]c2ncc(F)cc12 [Example P-25, N-ethyl-N-methyl-2-(5-fluoro-1H-pyrrolo[2,3-b]pyridin-3-yl)ethan-1-amine] | 8.23% | > 10000 nM | 70.3% | 109 nM | 21% | > 10000 nM |
| CCN(C)CCc1c[nH]c2ccc(OC)nc12 [Example P-13, N-ethyl-2-(5-methoxy-1H-pyrrolo[3,2-b]pyridin-3-yl)-N-methylethan-1-amine] | 2.25% | > 10000 nM | 79.6% | 10.1 nM | 95.8% | 31.9 nM |
| CCN(C)CCc1c[nH]c2ccnc(OC)c12 [Example P-37, N-ethyl-2-(4-methoxy-1H-pyrrolo[3,2-c]pyridin-3-yl)-N-methylethan-1-amine] | 2.6% | > 10000 nM | 82.8% | 86.8 nM | 105% | 533 nM |
| COc1cnc2[nH]cc(CCN(C(C)C)C(C)C)c2c1 [Example P-19, N-isopropyl-N-(2-(5-methoxy-1H-pyrrolo[2,3-b]pyridin-3-yl)ethyl)propan-2-amine] | 13.3% | > 10000 nM | 112% | 72.9 nM | 0.16% | > 10000 nM |
| COc1ccc2[nH]nc(CCN(C)C(C)C)c2c1 [Example P-52, N-(2-(5-methoxy-1H-indazol-3-yl)ethyl)-N-methylpropan-2-amine] |  | > 10000 nM |  | 1840 nM |  | > 10000 nM |
| COc1cccc2[nH]nc(CCN(C)C)c12 [Example P-55, 2-(4-methoxy-1H-indazol-3-yl)-N,N-dimethylethan-1-amine] |  | > 10000 nM |  | 256 nM |  | 367 nM |
| CCCN(CCC)CCc1c[nH]c2ccc(OC)nc12 [Example P-11, 2-(5-methoxy-1H-pyrrolo[3,2-b]pyridin-3-yl)-N,N-dipropylethan-1-amine] | 92.1% | 52.2 nM | 99.1% | 4.17 nM | 96.3% | 91.1 nM |
| CCN(C)CCc1c[nH]c2nccc(OC)c12 [Example P-28, N-ethyl-2-(4-methoxy-1H-pyrrolo[2,3-b]pyridin-3-yl)-N-methylethan-1-amine] | 0.69% | > 10000 nM | 70.5% | 782 nM | -0.06% | > 10000 nM |
| Cc1nccc2[nH]cc(CCN(C)C)c12 [Example P-39] |  |  | 1.47% | > 10000 nM |  |  |
| CCCN(CCC)CCc1n[nH]c2ccc(OC)cc12 [Example P-49, N,N-dipropyl-2-(5-methoxy-1H-indazol-3-yl)ethan-1-amine] |  | > 10000 nM |  | 1390 nM |  | > 10000 nM |
| CCN(C)CCc1c[nH]c2nccc(C)c12 [Example P-31, N-ethyl-N-methyl-2-(4-methyl-1H-pyrrolo[2,3-b]pyridin-3-yl)ethan-1-amine] | 1.01% | > 10000 nM | 54.5% | 1020 nM | 0.01% | > 10000 nM |
| CCN(CC)CCc1c[nH]c2nccc(OC)c12 [Example P-26, N,N-diethyl-2-(4-methoxy-1H-pyrrolo[2,3-b]pyridin-3-yl)ethan-1-amine] | 3.08% | > 10000 nM | 58.3% | 1620 nM | 0.9% | > 10000 nM |
| CCN(C)CCc1n[nH]c2ccc(OC)cc12 [Example P-51, N-ethyl-2-(5-methoxy-1H-indazol-3-yl)-N-methylethan-1-amine] |  | > 10000 nM |  | 526 nM |  | > 10000 nM |
